Values joined by “and” are separate entries in the source; they are usually repeats but may differ in a detail not shown here. Equal entries are not always repeated. Values belong to the compound of their own block, whether it stands above or below them.
System: 598228-144-R-J1-PDC complex spheroid viability
Experiment: Anticancer human tumor 598228-144-R-J1-PDC patient-derived serous endometrial adenocarcinoma cell line growth inhibition [GQUAD]
Settings: for viability, T/C: stronger effect = lower value
Source text: DNA G-quadruplex Stabilizer Agents in Combinations in Complex Spheroids
A high-throughput screen of multi-cell type tumor spheroids was designed to identify active combinations of DNA G-quadruplex stabilizer agents and targeted small molecules. Complex spheroids include a stromal component modeled by human endothelial cells (HUVEC) and fibroblasts modeled by human mesenchymal stem cells (MSCs). The concentration ranges selected for each drug and investigational agent were based upon clinically achievable concentrations if the clinical Cmax of the agent was known.
Compounds. The drugs and investigational agents: pidnarulex (CX-5461; NSC782164), APTO-253 (NSC789042), BRACO-19 (NSC847499), peposertib (NSC802822), ceralasertib (NSC780249), elimusertib (NSC800525), camonsertib (NSC841442), AZD-1390 (NSC803789), olaparib (NSC753686), talazoparib (NSC767125), ART-558 (NSC835418), sotorasib (NSC818433), MRTX-1133 (NSC836407), SN-38 (NSC673596), topotecan (NSC609699), etoposide (NSC141540), doxorubicin (NSC123127), gemcitabine (NSC613327), 5-fluorouracil (NSC19893), paclitaxel (NSC125973), vemurafenib (NSC761431), panobinostat (NSC761190), R-306465 (JNJ-16241199; NSC773264), adavosertib (NSC754352), TP-3654 (NSC805149), carboplatin (NSC241240), KSQ-4279 (NSC840948), and staurosporine (NSC755774) were obtained from the National Cancer Institute (NCI) Developmental Therapeutics Program Chemical Repository (34). The FDA-approved anticancer drug set is available from the NCI Developmental Therapeutics Program. […] The stock solutions were prepared in dimethyl sulfoxide (DMSO, Sigma-Aldrich, St. Louis, MO, cat. D2650) at 800-fold the tested concentration and stored at -70 degrees C prior to their use. All drugs and investigational agents were tested over a range starting from a high concentration at or near the clinical Cmax and decreasing in half-log increments. If the clinical Cmax for an agent had not been determined, the highest concentration tested was 10 microM.
2.3 Cell Culture. All cells were maintained in an incubator at 37 degrees C and 5% CO2 with 95% humidity. The PDC lines were cultured according to standard operating procedures established by the NCI PDMR. All PDCs were thawed and cultured in Matrigel-coated flasks prepared with a working solution of 1X Ham's F-12 nutrient mix, without supplementation (Invitrogen, cat. 11765054), 100 U/mL penicillin-streptomycin (Invitrogen, cat. 15140122), and 2.5% Matrigel (Corning Inc., cat. 354248) for the first three passages. The 857933-349-R-J2-PDC line was cultured in 6C/Colon 1B media, which includes advanced DMEM/F-12 (Thermo Fisher Scientific, cat. 12634028), 10 mM HEPES (Thermo Fisher Scientific, cat. 15630080), 1X GlutaMAX supplement (Thermo Fisher Scientific, cat. 35050061), 0.1 mg/mL primocin (InvivoGen, cat. ant-pm-2), 10% defined fetal bovine serum, heat inactivated (HyClone Laboratories Inc., cat. SH30070.03HI), 50% L-WRN conditioned media (ATCC, cat. CRL-3276), 1.25 mM N-Acetyl-L-cysteine (Sigma-Aldrich, cat. A9165), 10 mM nicotinamide (Sigma-Aldrich, cat. N0636), 1X B-27 supplement (Thermo Fisher Scientific, cat. 17504044), 1X N-2 supplement (Thermo Fisher Scientific, cat. 17502048), 10 microM Y-27632 dihydrochloride (Tocris Bioscience, cat. 1254), and 50 ng/mL human EGF recombinant protein (Thermo Fisher Scientific, cat. PHG0311). The 485176-168-R4-J1-PDC line was cultured in Panc media, which includes all 6C/Colon 1B media components plus 100 ng/mL human FGF-10 (Thermo Fisher Scientific, cat. 100-26), 500 nM SB-431542 (Selleckchem, cat. S1067), and gastrin (Tocris, cat. 3006).
[…]
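Note: spheroids exposed to the agents for one week before reading.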
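Throughout, for viability, T/C: percent of vehicle DMSO control viability so 100% = untreated growth.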

SMILES: Cc1[nH]c2ccccc2c1CCNCc1ccc(/C=C/C(=O)NO)cc1 + CN(C)c1ccc(Nc2c3ccc(NC(=O)CCN4CCCC4)cc3nc3cc(NC(=O)CCN4CCCC4)ccc23)cc1
IC50 (curve of first compound, second compound 0.0316 µM): 38.7 nM | IC50 (curve of first compound, second compound 0.1 µM): 48.5 nM | IC50 (curve of first compound, second compound 0.316 µM): 54.1 nM | IC50 (curve of first compound, second compound 1 µM): 43 nM | IC50 (curve of first compound, second compound 3.16 µM): 44.3 nM | IC50 (curve of first compound, second compound 10 µM): 19.6 nM | viability, T/C (second compound 0.0316 µM, first compound 0.000999 µM): 113% | viability, T/C (second compound 0.0316 µM, first compound 0.00316 µM): 94.7% | viability, T/C (second compound 0.0316 µM, first compound 0.00999 µM): 103% | viability, T/C (second compound 0.0316 µM, first compound 0.0316 µM): 46.6% | viability, T/C (second compound 0.0316 µM, first compound 0.0999 µM): 29.1% | viability, T/C (second compound 0.0316 µM, first compound 0.316 µM): 1.08% | viability, T/C (second compound 0.1 µM, first compound 0.000999 µM): 91.7% | viability, T/C (second compound 0.1 µM, first compound 0.00316 µM): 107% | viability, T/C (second compound 0.1 µM, first compound 0.00999 µM): 86% | viability, T/C (second compound 0.1 µM, first compound 0.0316 µM): 64.7% | viability, T/C (second compound 0.1 µM, first compound 0.0999 µM): 25.8% | viability, T/C (second compound 0.1 µM, first compound 0.316 µM): 0.89% | viability, T/C (second compound 0.316 µM, first compound 0.000999 µM): 114% | viability, T/C (second compound 0.316 µM, first compound 0.00316 µM): 96.8% | viability, T/C (second compound 0.316 µM, first compound 0.00999 µM): 95.7% | viability, T/C (second compound 0.316 µM, first compound 0.0316 µM): 70.7% | viability, T/C (second compound 0.316 µM, first compound 0.0999 µM): 26.9% | viability, T/C (second compound 0.316 µM, first compound 0.316 µM): 0.69% | viability, T/C (second compound 1 µM, first compound 0.000999 µM): 96.9% | viability, T/C (second compound 1 µM, first compound 0.00316 µM): 120% | viability, T/C (second compound 1 µM, first compound 0.00999 µM): 91.2% | viability, T/C (second compound 1 µM, first compound 0.0316 µM): 59.1% | viability, T/C (second compound 1 µM, first compound 0.0999 µM): 23.5% | viability, T/C (second compound 1 µM, first compound 0.316 µM): 2.25% | viability, T/C (second compound 3.16 µM, first compound 0.000999 µM): 99.9% | viability, T/C (second compound 3.16 µM, first compound 0.00316 µM): 103% | viability, T/C (second compound 3.16 µM, first compound 0.00999 µM): 87.9% | viability, T/C (second compound 3.16 µM, first compound 0.0316 µM): 66.7% | viability, T/C (second compound 3.16 µM, first compound 0.0999 µM): 13.9% | viability, T/C (second compound 3.16 µM, first compound 0.316 µM): 0.99% | viability, T/C (second compound 10 µM, first compound 0.000999 µM): 82.3% | viability, T/C (second compound 10 µM, first compound 0.00316 µM): 102% | viability, T/C (second compound 10 µM, first compound 0.00999 µM): 70.5% | viability, T/C (second compound 10 µM, first compound 0.0316 µM): 33.6% | viability, T/C (second compound 10 µM, first compound 0.0999 µM): 8.01% | viability, T/C (second compound 10 µM, first compound 0.316 µM): 0.44%

IC50 (compound alone, run of 03/18/2024): > 10000 nM and 3620 nM | IC50 (compound alone, run of 03/26/2024): > 10000 nM
SMILES: Cc1[nH]c2ccc(F)cc2c1-c1nc2c3cccnc3c3ncccc3c2[nH]1
viability, T/C (compound 0.0316 µM): 99.3% [middle of 12 runs] | viability, T/C (compound 3.16 µM): 46.7% [middle of 12 runs] | viability, T/C (compound 10 µM): 68.5% [middle of 12 runs]

IC50 (curve of compound): > 10000 nM
SMILES: O=C(c1cc(Cc2n[nH]c(=O)c3ccccc23)ccc1F)N1CCN(C(=O)C2CC2)CC1
viability, T/C (compound 0.0316 µM): 99.5% and 83.8% and 109% | viability, T/C (compound 0.1 µM): 96.3% and 85.6% and 96.4% | viability, T/C (compound 0.316 µM): 88.2% and 96.8% (2×) | viability, T/C (compound 1 µM): 118% and 79.3% and 98.2% | viability, T/C (compound 3.16 µM): 81% and 79.2% and 90.8% | viability, T/C (compound 10 µM): 74.8% and 64.3% and 66.1%

SMILES: Cc1cnc(CNC(=O)c2c(=O)c3ccc(N4CCCN(C)CC4)nc3n3c2sc2ccccc23)cn1
viability, T/C (compound 0.1 µM): 73.5% [middle of 12 runs] | viability, T/C (compound 1 µM): 65.9% [middle of 12 runs] | viability, T/C (compound 3.16 µM): 56.4% [middle of 12 runs]

Reference: PubChem BioAssay AID2060506 (Molecular Pharmacology Branch, DTP, NCI, 2025)
